Source: patent EP3815699A1, “NEW MEANS AND METHODS FOR THERAPY AND DIAGNOSIS OF […]” (Technische Universität München, priority 2019, dated 2021)
Where two headings read alike, the source gives them in different places.

Tests used:
HAdV-C5 wt [1] = assay: Immunofluorescence count of HAdV replication centers marked by E2A (Fig. 4B); type: cell-based; conditions: HAdV infected cells
[2] = test system: HAdV-C5 delta E3 virus, encoding a CMV promoter driven eGFP expression cassette; assay: GFP fluorescence of replication competent GFP-expressing virus in H1299 cells (Fig. 2B); type: cell-based; conditions: for IC50: read-out: IC50 (HAdV infection, GFP)
Experimental: (§1) • Figure 1: ATO efficiently reduces HAdV infectivity (cf. Example 1). H1299 cells were infected with HAdV-C5 wt at a multiplicity of 5 FFU/cell, treated with the depicted concentrations of ATO at 2 h.p.i., fixed 48 h.p.i. with 4 % PFA and double labeled with mAb B6-8 (α-E2A) and pAb L133 (α-Capsid). Primary antibodies were detected using Alexa488 (E2A, green) and Alexa568 (Capsid, red) conjugated secondary antibodies. (A) The number of E2A and Capsid expressing cells, respectively, was counted in n=40 overview pictures (not shown), normalized to untreated, infected cells, and represented in bar charts. Bar charts represent average values and standard deviations based on four independent experiments. (B) H1299 cells were infected with HAdV-C5 at a multiplicity of 20 FFU/cell, and treated with the depicted concentrations of ATO at 2 h.p.i.. Viral particles were harvested 48 h.p.i. and virus yield was determined by quantitative E2A immunofluorescence staining in 293 cells. Bar charts represent average values and standard deviations based on three independent experiments. Statistically significant differences were determined using a two-sided Welch's t-test. *: P ≤ 0.05, **: P ≤ 0.01, ***: P ≤ 0.001, ****: P ≤ 0.0001. • Figure 2: ATO induces a dose dependent reduction of HAdV infectivity with minor effects on cell viability (cf. Example 2). (A) H1299 cells were infected with HAdV-C5 wt at a multiplicity of 20 FFU/cell and treated with the depicted concentrations of ATO at 2 h.p.i.. 24 or 48 h.p.i., cell viability was assessed using the Promega CellTiter-Blue Cell Viability Assay system, prior to fixation with 4 % PFA and cells were double labeled with mAb B6-8 (α-E2A) and pAb L133 (α-Capsid). Primary antibodies were detected using Alexa488 (E2A, green) and Alexa647 (Capsid, red) conjugated secondary antibodies. Fluorescence intensity was measured using a Tecan Infinite 200M plate reader using an excitation and emission wavelength of 488 and 520nm for Alexa488 and 640 and 670nm for Alexa647 respectively. Fluorescence intensity was normalized to untreated, infected cells at 48h p.i.. xy charts represent average values and standard deviations based on three independent experiments measured in triplicates. (B) H1299 cells were infected with an HAdV-C5 delta E3 virus, encoding a CMV promoter driven eGFP expression cassette, at a multiplicity of 20FFU/cell and treated with the depicted concentrations of ATO at 2h p.i.; 24 or 48 h p.i. cell viability was assessed using the Promega CellTiter-Blue Cell Viability Assay system, and GFP fluorescence intensity was measured using a Tecan Infinite 200M plate reader using an excitation and emission wavelength of 488 and 520nm. Fluorescence intensity was normalized to untreated, infected cells at 48h p.i.; xy charts represent average values and standard deviations based on three independent experiments measured in triplicates. (C) H1299 cells were infected with an eGFP expressing HAdV-C5 based first generation adenoviral vector at a multiplicity of 20 FFU/cell and treated with the depicted concentrations of ATO at 2h p.i.; 24 or 48h p.i., cell viability was assessed using the Promega CellTiter-Blue Cell Viability Assay system, and GFP fluorescence intensity was measured using a Tecan Infinite 200M plate reader using an excitation and emission wavelength of 488 and 520nm. […]

[3] = test system: eGFP expressing HAdV-C5 based first generation adenoviral vector; assay: GFP fluorescence of non-replicating adenoviral vector in H1299 cells (Fig. 2C); type: cell-based; conditions: for GFP expression compared to the untreated control: 8µM ATO; for IC50: read-out: IC50 (GFP expression)
Experimental: as §1, with “(A) H1299 cells were infected with HAdV-C5 wt at a multiplicity of 20 FFU/cell and treated with the depicted concentrations of ATO at 2 h.p.i..” left out, “triplicates.” for “triplicates. (C) H1299 cells were infected with an eGFP expressing HAdV-C5 based first generation adenoviral vector at a multiplicity of 20 FFU/cell and treated with the depicted concentrations of ATO at 2h p.i.; 24 or 48h p.i., cell viability was assessed using the Promega CellTiter-Blue Cell Viability Assay system, and GFP fluorescence intensity was measured using a Tecan Infinite 200M plate reader using an excitation and emission wavelength of 488 and 520nm.”

HAdV-C5 wt [4] = assay: Immunofluorescence count of E2A and capsid expressing infected cells (Fig. 1A); type: cell-based
Experimental: as §1, with “(A) H1299 cells were infected with HAdV-C5 wt at a multiplicity of 20 FFU/cell and treated with the depicted concentrations of ATO at 2 h.p.i..” left out, “triplicates.” for “triplicates. (C) H1299 cells were infected with an eGFP expressing HAdV-C5 based first generation adenoviral vector at a multiplicity of 20 FFU/cell and treated with the depicted concentrations of ATO at 2h p.i.; 24 or 48h p.i., cell viability was assessed using the Promega CellTiter-Blue Cell Viability Assay system, and GFP fluorescence intensity was measured using a Tecan Infinite 200M plate reader using an excitation and emission wavelength of 488 and 520nm.”

PML-NBs = assay: Immunofluorescence count of PML-NBs per cell in uninfected H1299 cells (Fig. 4A); type: cell-based, Human; conditions: non-infected cells
HAdV-C5 wt [5] = assay: Native agarose gel electrophoresis capsid formation assay (Fig. 3D); type: cell-based
HAdV-C5 wt [6] = assay: Western blot of viral protein expression (Fig. 3C); type: cell-based; conditions: 1 and 2µM ATO
[7] = ATO concentration not stated at the place

PML-NBs, sequence (P29590 1-418 limits assumed): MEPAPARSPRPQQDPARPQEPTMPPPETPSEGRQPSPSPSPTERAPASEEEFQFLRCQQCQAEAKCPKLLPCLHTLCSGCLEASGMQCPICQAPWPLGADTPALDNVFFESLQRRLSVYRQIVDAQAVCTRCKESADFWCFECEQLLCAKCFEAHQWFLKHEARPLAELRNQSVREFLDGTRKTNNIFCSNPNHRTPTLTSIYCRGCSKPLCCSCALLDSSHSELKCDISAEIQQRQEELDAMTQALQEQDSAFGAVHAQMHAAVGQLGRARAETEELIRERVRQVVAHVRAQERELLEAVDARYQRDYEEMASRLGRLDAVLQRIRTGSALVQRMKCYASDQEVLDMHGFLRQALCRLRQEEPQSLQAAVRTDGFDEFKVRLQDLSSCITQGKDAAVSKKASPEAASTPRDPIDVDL

arsenic trioxide [ATO]
RC in number (replication centers) (HAdV-C5 wt [1]): significant reduction | inhibition of adenoviral infection ([2]; 2µM ATO, 48h p.i.): more than 50% | inhibition of adenoviral infection ([2]; 4µM ATO, 24h p.i.): up to 75% | inhibition of adenoviral infection ([2]; 4µM ATO, 48h p.i.): more than 75% | IC50 ([2]; 24h p.i.): 1.61 µM | IC50 ([2]; 48 h p.i.): 1.18 µM | GFP expression compared to the untreated control ([3]; 24h p.i.): Less than 50% | GFP expression compared to the untreated control ([3]; 48h p.i.): Less than 50% | IC50 ([3]; 24h p.i.): 6.49 µM | IC50 ([3]; 48h p.i.): 10.2 µM | reduction of early viral DNA binding protein E2A expression (HAdV-C5 wt [4]; 1µM ATO, H1299, 5 FFU/cell, ATO at 2 h.p.i., 48 h.p.i.): 40% | inhibition of late capsid protein expression (HAdV-C5 wt [4]; 2.0µM ATO, H1299, 5 FFU/cell, ATO at 2 h.p.i., 48 h.p.i.): ~80% | reduction in cells expressing E2A (HAdV-C5 wt [4]; [7]): up to 40% | reduction in cells expressing capsid (HAdV-C5 wt [4]; [7]): up to 80% | number of PML-NBs (PML-NBs): significantly decreases | signal obtained after capsid staining (native gel assay) (HAdV-C5 wt [5]): significantly reduced | capsid protein expression (HAdV-C5 wt [5]; denatured input lysates, right panel): reduced | E1B-55K viral protein (HAdV-C5 wt [6]): decrease | E4orf6 viral protein (HAdV-C5 wt [6]): decrease | expression of the early viral protein E2A (HAdV-C5 wt [6]): decrease
